Series [1] is described as follows: Ethylene oxide stability of cast paclitaxel-excipient films. As to conditions: mean of N = 3. The series is classed as physicochemical.
Description: Approximately 30 mg of excipient was weighed into a 7 mL glass vial and 6 mL of 75/25 v/v acetone/water was added. A small stirrer bar was added to each vial and all samples were stirred overnight at room temperature to ensure full dissolution. Next, a stock solution of paclitaxel in the casting solvent was made at 5 mg/mL. A specific volume of paclitaxel stock and excipient stock was added to a new vial to achieve the target paclitaxel/excipient weight fraction listed in Table 6. The vials were then mixed and aliquoted to N=6 of the 20 mL vials (0.5 mL each). A paclitaxel-only control was also added to N=6 vials (0.25 mL each). All vials were left in a fume hood overnight to evaporate the solvents. After drying, the samples were capped with cellulose membranes cut to septa size to allow ethylene oxide and moisture permeability. All samples were packaged in breathable polyethylene pouches. N=3 of each paclitaxel/excipient mixture were kept as non-sterilized controls, and the remainder (N=3) were sent for ethylene oxide sterilization (see Test Method D). Non-sterilized controls were stored at room temperature prior to analysis. Paclitaxel content analysis was performed as described in the Evaluation Methods section. Percent paclitaxel recovery was calculated by normalizing to either theoretical initial loading or pre-sterilized samples.
Series [2] can be described thus: Ethylene oxide sterilization instability of paclitaxel-niacinamide formulations. As to conditions: additive formulated with paclitaxel as solid coating.
The conditions of series [3]: acetone, ethanol and aqueous mixtures thereof. From the text:
As discussed in further detail below, coatings of the invention can be prepared by pipetting a solution containing therapeutic agent and excipient onto the device to be coated. […] Thus, in one embodiment the organic additive is not thiamine-HCl.

Series [4] can be described thus: Early experiments on stability of organic additive in solution. The series is classed as physicochemical. The source says: Thus, vanillin is not suitable as an organic additive for the present invention.

Structures are written as SMILES. Where a name gives a salt, the structure may show the parent alone.

As for `CC(=O)O[C@H]1C(=O)[C@@]2(C)[C@H]([C@H](OC(=O)c3ccccc3)[C@]3(O)C[C@H](OC(=O)[C@H](O)[C@@H](NC(=O)c4ccccc4)c4ccccc4)C(C)=C1C3(C)C)[C@]1(OC(C)=O)CO[C@@H]1C[C@@H]2O` [PTX only, paclitaxel], the “% PTX recovery, pre vs. post” value in series [1] (cast formulations post ethylene oxide sterilization, normalized to pre-sterilized samples) turned out to be 101.7%. For the same compound, the “% PTX recovery, theoretical vs. pre” value in series [1] (cast formulations pre-sterilization, normalized to theoretical loading) amounted to 98.2%.

`O=C([O-])c1ccccc1O.[Na+]` [sodium salicylate]: the “paclitaxel degradation on ethylene oxide sterilization” value in series [2] was “cause degradation of the paclitaxel”.

Consider `Cc1ncc(C[n+]2csc(CCO)c2C)c(N)n1` [thiamine-HCl], for which the “solubility” value in series [3] is given as “poor solubility”.

In the case of `COc1cc(C=O)ccc1O` [vanillin], in series [4], the “stability in solution” value is “easily degraded in solution”.
